Literature values, collected in US8636711B2 (priority 2010, dated 2014).

Compound: NS(=O)(=O)c1cc(C(=O)O)c(NCc2ccco2)cc1Cl [furosemide]
- tolerability (intravenous or subcutaneous routes): generally well-tolerated
- pH value (parenteral): 11-12
